Data on 1 compound can be found in article PMC6332427, “Drug Discovery of Host CLK1 Inhibitors for Influenza Treatment” (Molecules, 2015).

In one assay the test system is CLK1. The following applies: cited from earlier work.
In assay [1] the test system is influenza virus A/PR/8/34 (H1N1). The following applies: 24 h, mean ± SD.

pIC50: −log10 of the molar value.

A word on the pIC50: it is −log10 of the IC50, conventionally taken in molar units. Take `CCN1/C(=C/C(C)=O)Sc2ccc(OC)cc21` [TG003, reference compound]: in the assay with CLK1, the pIC50 was […]. Also, the “Post-Treatment Assay EC50” value in assay [1] (H1N1 (MOI 0.01) incubated with MDCK cells 2 h, then compound) turned out to be 3.56 ± 1.47 µg/mL. Further, in assay [1] (H1N1 (MOI 0.01) pre-incubated with compound 2 h at 37 °C before addition to MDCK cells), the “Pre-Treatment Assay EC50” value came to 5.09 ± 0.78 µg/mL. Moreover, the “Simultaneous Treatment Assay EC50” value in assay [1] (compound added along with H1N1 (MOI 0.01) to MDCK cells) stood at 15.75 ± 3.49 µg/mL.
